Source: patent US12479830B2, “Homopiperazinyl and homopiperidinyl quinazolin-4(3H)-one derivatives having multimodal activity against pain” (ESTEVE PHARMACEUTICALS, S.A., priority 2019, dated 2025)

Legend:
[1] = molecular target: T1, Human σ1 receptor (Homo sapiens, UniProt Q99720); test: Human σ1 receptor radioligand assay ([3H](+)-pentazocine binding); details: binding to the σ1 receptor, expressed as Ki class; + also covers inhibition between 1% and 50%
T1 construct: expressed in transfected cells; host or cells: HEK-293
Procedure, shortened: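 Ki was derived from five test concentrations, or % inhibition was measured at a single 1 or 10 μM dose, against 5 nM [3H](+)-pentazocine. Incubation was 120 min at 37° C in 50 mM Tris-HCl pH 8 with 7 μg HEK-293 membranes, and 10 μM haloperidol set non-specific binding. Bound radioactivity was counted after filtration.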

[2] = molecular target: Human α2δ-1 subunit of Cav2.2 calcium channel (Homo sapiens, UniProt P54289); test: Human α2δ-1 subunit of Cav2.2 calcium channel assay ([3H]-gabapentin binding); details: binding to the α2δ-1 subunit of voltage-gated calcium channels, expressed as Ki class; + also covers inhibition between 1% and 50%
Procedure, shortened: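 Affinity (Ki, five concentrations) or % inhibition at 1 or 10 μM, from displacement of 15 nM [3H]-gabapentin on human α2δ-1 membranes. Incubation 60 min, 27° C., Hepes-KOH 10 mM pH 7.4; 10 μM pregabalin defined non-specific binding; bound radioactivity counted after GF/C filtration.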

T1 sequence (Q99720 whole entry): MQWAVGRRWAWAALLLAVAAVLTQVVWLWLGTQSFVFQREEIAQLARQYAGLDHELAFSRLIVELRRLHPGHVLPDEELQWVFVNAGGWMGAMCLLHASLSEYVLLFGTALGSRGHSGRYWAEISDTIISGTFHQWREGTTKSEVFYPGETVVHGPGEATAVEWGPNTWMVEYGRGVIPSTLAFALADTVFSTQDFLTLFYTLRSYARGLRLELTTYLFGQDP
Chain of Human α2δ-1 subunit of Cav2.2 calcium channel (P54289 25-1103): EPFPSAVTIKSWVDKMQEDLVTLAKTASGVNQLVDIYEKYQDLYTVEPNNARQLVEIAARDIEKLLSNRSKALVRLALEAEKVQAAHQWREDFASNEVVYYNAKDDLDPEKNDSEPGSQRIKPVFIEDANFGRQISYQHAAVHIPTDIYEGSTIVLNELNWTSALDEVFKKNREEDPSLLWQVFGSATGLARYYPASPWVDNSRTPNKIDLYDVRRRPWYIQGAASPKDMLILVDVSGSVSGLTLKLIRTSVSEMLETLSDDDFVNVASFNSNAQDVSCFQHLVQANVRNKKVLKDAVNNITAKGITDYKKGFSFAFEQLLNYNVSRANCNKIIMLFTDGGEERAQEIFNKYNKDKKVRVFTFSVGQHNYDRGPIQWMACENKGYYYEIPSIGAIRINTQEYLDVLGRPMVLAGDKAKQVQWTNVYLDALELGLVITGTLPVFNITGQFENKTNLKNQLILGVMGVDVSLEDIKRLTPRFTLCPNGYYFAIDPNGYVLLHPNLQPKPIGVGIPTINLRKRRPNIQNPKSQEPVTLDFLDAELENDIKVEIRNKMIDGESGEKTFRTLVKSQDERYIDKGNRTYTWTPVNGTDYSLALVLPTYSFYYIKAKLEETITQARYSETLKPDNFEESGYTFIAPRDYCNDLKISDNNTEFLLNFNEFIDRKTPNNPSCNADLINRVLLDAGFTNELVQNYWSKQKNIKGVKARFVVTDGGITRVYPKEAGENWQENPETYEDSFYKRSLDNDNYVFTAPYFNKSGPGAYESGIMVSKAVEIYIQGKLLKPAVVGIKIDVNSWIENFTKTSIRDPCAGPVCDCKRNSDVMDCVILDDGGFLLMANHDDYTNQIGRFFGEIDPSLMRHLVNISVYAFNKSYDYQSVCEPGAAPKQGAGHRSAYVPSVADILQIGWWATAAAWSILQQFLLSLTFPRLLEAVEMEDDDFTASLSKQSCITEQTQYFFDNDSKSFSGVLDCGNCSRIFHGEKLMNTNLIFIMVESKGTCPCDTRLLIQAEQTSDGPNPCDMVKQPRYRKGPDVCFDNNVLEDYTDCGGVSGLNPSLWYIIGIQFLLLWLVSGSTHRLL

Ki [1] [nM]	Ki [2] [nM]	Structure (SMILES)
> 1000	> 5000	CCC[C@H](c1nc2ccc(F)c(F)c2c(=O)n1CC)N1CCN[C@H](C)CC1 [Example 239, 3-ethyl-5,6-difluoro-2-((R)-1-((R)-5-methyl-1,4-diazepan-1-yl)butyl)quinazolin-4(3H)-one]
< 500	< 500	CCC[C@H](c1nc2ccc(F)c(F)c2c(=O)n1CC)N1CCN[C@@H](C)CC1 [Example 240, 3-ethyl-5,6-difluoro-2-((R)-1-((S)-5-methyl-1,4-diazepan-1-yl)butyl)quinazolin-4(3H)-one]
500 to 1000	< 500	CCC[C@H](c1nc2cc(F)c(F)cc2c(=O)n1CC)N1CCN[C@H](C)CC1 [Example 241, 3-ethyl-6,7-difluoro-2-((R)-1-((R)-5-methyl-1,4-diazepan-1-yl)butyl)quinazolin-4(3H)-one]
< 500	< 500	CCC[C@H](c1nc2cc(F)c(F)cc2c(=O)n1CC)N1CCN[C@@H](C)CC1 [Example 242, 3-ethyl-6,7-difluoro-2-((R)-1-((S)-5-methyl-1,4-diazepan-1-yl)butyl)quinazolin-4(3H)-one]
> 1000	< 500	CCC[C@H](c1nc2cc(F)c(OC)cc2c(=O)n1CC)N1CCNC[C@@H](C)C1 [Example 243, 3-ethyl-7-fluroo-6-methoxy-2-((R)-1-((R)-6-methyl-1,4-diazepan-1-yl)butyl)quinazolin-4(3H)-one]
> 1000	500 to 5000	CCC[C@H](c1nc2cc(F)c(OC)cc2c(=O)n1CC)N1CCNC[C@H](C)C1 [Example 244, 3-ethyl-7-fluoro-6-methoxy-2-((R)-1-((S)-6-methyl-1,4-diazepan-1-yl)butyl)quinazolin-4(3H)-one]
500 to 1000	> 5000	CCC[C@H](c1nc2ccc(Cl)cc2c(=O)n1C)N1CCN[C@H](C)CC1 [Example 245, 6-chloro-3-methyl-2-((R)-1-((R)-5-methyl-1,4-diazepan-1-yl)butyl)quinazolin-4(3H)-one]
< 500	500 to 5000	CCC[C@H](c1nc2ccc(Cl)cc2c(=O)n1C)N1CCN[C@@H](C)CC1 [Example 246, 6-chloro-3-methyl-2-((R)-1-((S)-5-methyl-1,4-diazepan-1-yl)butyl)quinazolin-4(3H)-one]
500 to 1000	< 500	CCC[C@H](c1nc2c(F)cc(F)cc2c(=O)n1CC)N1CCCN(C)CC1 [Example 247, (R)-3-ethyl-6,8-difluoro-2-(1-(4-methyl-1,4-diazepan-1-yl)butyl)quinazolin-4(3H)-one]
> 1000	< 500	CCC[C@H](c1nc2c(F)cccc2c(=O)n1CC)N1CCCN(C)CC1 [Example 248, (R)-3-ethyl-8-fluoro-2-(1-(4-methyl-1,4-diazepan-1-yl)butyl)quinazolin-4(3H)-one]
500 to 1000	< 500	CCC[C@H](c1nc2ccc(OC(F)(F)F)cc2c(=O)n1CC)N1CCCN(C)CC1 [Example 249, (R)-3-ethyl-2-(1-(4-methyl-1,4-diazepan-1-yl)butyl)-6-(trifluoromethoxy)quinazolin-4(3H)-one]
> 1000	> 5000	CCC[C@H](c1nc2c(F)cc(F)cc2c(=O)n1CC)N1CCN[C@H](C)CC1 [Example 250, 3-ethyl-6,8-difluoro-2-((R)-1-((R)-5-methyl-1,4-diazepan-1-yl)butyl)quinazolin-4(3H)-one]
< 500	500 to 5000	CCC[C@H](c1nc2c(F)cc(F)cc2c(=O)n1CC)N1CCN[C@@H](C)CC1 [Example 251, 3-ethyl-6,8-difluoro-2-((R)-1-((S)-5-methyl-1,4-diazepan-1-yl)butyl)quinazolin-4(3H)-one]
< 500	< 500	CCC[C@H](c1nc2ccc(C(F)(F)F)cc2c(=O)n1CC)N1CCCN(C)CC1 [Example 252, (R)-3-ethyl-2-(1-(4-methyl-1,4-diazepan-1-yl)butyl)-6-(trifluoromethyl)quinazolin-4(3H)-one]
500 to 1000	> 5000	CCC[C@H](c1nc2ccc(F)cc2c(=O)n1CC)N1CCCNC(C)(C)C1 [Example 253]
< 500	> 5000	CCC[C@H](c1nc2ccc(Cl)cc2c(=O)n1C)N1CC[C@H](C)N(C)CC1 [Example 254, 6-chloro-2-((R)-1-((S)-4,5-dimethyl-1,4-diazepan-1-yl)butyl)-3-methylquinazolin-4(3H)-one]
> 1000	> 5000	CCC[C@H](c1nc2ccc(F)cc2c(=O)n1C)N1CCN[C@H](C)CC1 [Example 255, 6-fluoro-3-methyl-2-((R)-1-((R)-5-methyl-1,4-diazepan-1-yl)butyl)quinazolin-4(3H)-one]
< 500	500 to 5000	CCC[C@H](c1nc2ccc(F)cc2c(=O)n1C)N1CCN[C@@H](C)CC1 [Example 256, 6-fluoro-3-methyl-2-((R)-1-((S)-5-methyl-1,4-diazepan-1-yl)butyl)quinazolin-4(3H)-one]
< 500	> 5000	CCC[C@H](c1nc2ccc(Cl)cc2c(=O)n1C)N1CC[C@@H](C)N(C)CC1 [Example 257, 6-chloro-2-((R)-1-((R)-4,5-dimethyl-1,4-diazepan-1-yl)butyl)-3-mehtylquinazolin-4(3H)-one]
< 500	500 to 5000	CCC[C@H](c1nc2ccc(C(F)(F)F)cc2c(=O)n1CC)N1CCN[C@H](C)CC1 [Example 258, 3-ethyl-2-((R)-1-((R)-5-methyl-1,4-diazepan-1-yl)butyl)-6-(trifluoromethyl)quinazolin-4(3H)-one]
< 500	< 500	CCC[C@H](c1nc2ccc(C(F)(F)F)cc2c(=O)n1CC)N1CCN[C@@H](C)CC1 [Example 259, 3-ethyl-2-((R)-1-((S)-5-methyl-1,4-diazepan-1-yl)butyl)-6-(trifluoromethyl)quinazolin-4(3H)-one]
> 1000	< 500	CCC[C@H](c1nc2cc(F)c(F)cc2c(=O)n1CC)N1CCCN[C@@H](C)C1 [Example 260, 3-ethyl-6,7-difluoro-2-((R)-1-((S)-3-methyl-1,4-diazepan-1-yl)butyl)quinazolin-4(3H)-one]
> 1000	< 500	CCC[C@H](c1nc2cc(F)c(F)cc2c(=O)n1CC)N1CCCN[C@H](C)C1 [Example 261, 3-ethyl-6,7-difluoro-2-((R)-1-((R)-3-methyl-1,4-diazepan-1-yl)butyl)quinazolin-4(3H)-one]
500 to 1000	< 500	CCC[C@H](c1nc2ccc(Br)cc2c(=O)n1CC)N1CC[C@H](C)N(C)CC1 [Example 262]
> 1000	> 5000	CCC[C@@H](c1nc2ccc(Br)cc2c(=O)n1CC)N1CC[C@H](C)N(C)CC1 [Example 263]
> 1000	< 500	CCCC(c1nc2ccc(F)cc2c(=O)n1CC)C1CCCNCC1 (stereo not drawn) [Example 266, 2-(1-(Azepan-4-yl)butyl)-3-ethyl-6-fluoroquinazolin-4(3H)-one]
500 to 1000	< 500	CCCC(c1nc2ccc(F)cc2c(=O)n1CC)C1CCCN(C)CC1 (stereo not drawn) [Example 267, 3-ethyl-6-fluoro-2-(1-(1-methylazepan-4-yl)butyl)quinazolin-4(3H)-one]
< 500	500 to 5000	CCCC(c1nc2ccc(F)cc2c(=O)n1CC)C1CCCN(CC)CC1 (stereo not drawn) [Example 268, 3-ethyl-2-(1-(1-ethylazepan-4-yl)butyl)-6-fluoroquinazolin-4(3H)-one]
500 to 1000	> 5000	CC[C@@H]1CCn2c(nc3ccc(Br)cc3c2=O)[C@H]1N1CCCN(C)CC1 [Example 269, (6S,7R)-2-Bromo-7-ethyl-6-(4-methyl-1,4-diazepan-1-yl)-8,9-dihydro-6H-pyrido[2,1-b]quinazolin-11(7H)-one]
500 to 1000	> 5000	CC[C@H]1CCn2c(nc3ccc(Br)cc3c2=O)[C@@H]1N1CCCN(C)CC1 [Example 270, (6R,7S)-2-bromo-7-ethyl-6-(4-methyl-1,4-diazepan-1-yl)-8,9-dihydro-6H-pyrido[2,1-b]quinazolin-11(7H)-one]
